Experimental data taken from paper PMC11676667, “Pharmacokinetics of Oral Cannabinoid Δ8-Tetrahydrocannabivarin and Its Main Metabolites in Healthy Participants” (Pharmaceuticals, 2024).
Read-outs that look alike come from different tables or passages of the source.

Assay: Plasma pharmacokinetics after single oral dose of Δ8-THCV in MCT oil (LC-MS/MS, non-compartmental analysis)
Assay type: in vivo, human
Set-up: Clast (last quantifiable concentration): unit not given here
Settings: for Clast (last quantifiable concentration) / tlast (time to last quantifiable concentration) / concentration at 0.5 h / concentration at 1 h / concentration at 2 h / concentration at 4 h / concentration at 6 h / concentration at 8 h / AUC(0-t) / Cmax / MRT / Tmax: plasma; for plasma concentration: Predose; for concentration at 0.5 h / concentration at 1 h / concentration at 2 h / concentration at 4 h / concentration at 6 h / concentration at 8 h / AUC(0-t) / Cmax / MRT / Tmax: human; for concentration at 0.5 h / concentration at 1 h / concentration at 2 h / concentration at 4 h / concentration at 6 h / concentration at 8 h: oral; for AUC(0-t) / Cmax / MRT / Tmax: po; for MRT: read-out: MRT (mean residence time); for Tmax: read-out: tmax
Summary of the method: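 Healthy participants received single oral Δ8-THCV in MCT oil (50 mg/mL; 12.5-200 mg, or placebo) after a high-fat, high-calorie breakfast, with ≥1-week washout. Plasma (K2EDTA) sampled predose and 0.5-8 h post-dose, assayed by validated LC-MS/MS including metabolites; PK by non-compartmental analysis, sub-LLOQ values set to 0.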

[1] = 100 mg single oral Δ8-THCV in MCT oil, Mean (±SD)
[2] = 100 mg single oral Δ8-THCV in MCT oil, Median (Range)
[3] = 200 mg single oral Δ8-THCV in MCT oil, Mean (±SD)
[4] = 200 mg single oral Δ8-THCV in MCT oil, Median (Range)
[5] = 12.5 mg, 12.5 mg Δ8-THCV dose, Mean (SD, %CV)
[6] = 12.5 mg, 12.5 mg Δ8-THCV dose, Median (IQ Range)
[7] = 25 mg, 25 mg Δ8-THCV dose, Mean (SD, %CV)
[8] = 25 mg, 25 mg Δ8-THCV dose, Median (IQ Range)
[9] = 50 mg, 50 mg Δ8-THCV dose, Mean (SD, %CV)
[10] = 50 mg, 50 mg Δ8-THCV dose, Median (IQ Range)
[11] = 100 mg, 100 mg Δ8-THCV dose, Mean (SD, %CV)
[12] = 100 mg, 100 mg Δ8-THCV dose, Median (IQ Range)
[13] = 200 mg, 200 mg Δ8-THCV dose, Mean (SD, %CV)
[14] = 200 mg, 200 mg Δ8-THCV dose, Median (IQ Range)
[15] = 100 mg, 100 mg single oral Δ8-THCV in MCT oil, Mean (±SD)
[16] = 100 mg, 100 mg single oral Δ8-THCV in MCT oil, Median (Range)
[17] = 200 mg, 200 mg single oral Δ8-THCV in MCT oil, Mean (±SD)
[18] = 200 mg, 200 mg single oral Δ8-THCV in MCT oil, Median (Range)

CCCCCc1cc(O)c2c(c1)OC(C)(C)[C@@H]1CC=C(C(=O)O)CC21 (single isomer, unassigned; (+)) [Δ8-THC-COOH, (+)-11-nor-Δ8-THC-9-carboxylic acid]
Clast (last quantifiable concentration) [1]: 1.3 (±0.2) | tlast (time to last quantifiable concentration) [1]: 5.8 (±1.3) | Clast (last quantifiable concentration) [2]: 1.3 (1–1.7) | tlast (time to last quantifiable concentration) [2]: 6 (4–8) | Clast (last quantifiable concentration) [3]: 1.9 (±0.6) | tlast (time to last quantifiable concentration) [3]: 7.5 (±1.2) | Clast (last quantifiable concentration) [4]: 1.8 (1.1–2.8) | tlast (time to last quantifiable concentration) [4]: 8 (4–8) | plasma concentration (12.5 mg Δ8-THCV dose, Mean (SD, %CV)): 0 (±0, --) ng/mL | plasma concentration (12.5 mg Δ8-THCV dose, Median (IQ Range)): 0 (0–0) ng/mL | plasma concentration (25 mg Δ8-THCV dose, Mean (SD, %CV)): 0 (±0, --) ng/mL | plasma concentration (25 mg Δ8-THCV dose, Median (IQ Range)): 0 (0–0) ng/mL | plasma concentration (50 mg Δ8-THCV dose, Mean (SD, %CV)): 0 (±0, --) ng/mL | plasma concentration (50 mg Δ8-THCV dose, Median (IQ Range)): 0 (0–0) ng/mL | plasma concentration (100 mg Δ8-THCV dose, Mean (SD, %CV)): 0 (±0, --) ng/mL | plasma concentration (100 mg Δ8-THCV dose, Median (IQ Range)): 0 (0–0) ng/mL | plasma concentration (200 mg Δ8-THCV dose, Mean (SD, %CV)): 0 (±0, --) ng/mL | plasma concentration (200 mg Δ8-THCV dose, Median (IQ Range)): 0 (0–0) ng/mL | concentration at 0.5 h [5]: 0 ng/mL | concentration at 0.5 h [6]: 0 ng/mL | concentration at 1 h [5]: 0 ng/mL | concentration at 1 h [6]: 0 ng/mL | concentration at 2 h [5]: 0 ng/mL | concentration at 2 h [6]: 0 ng/mL | concentration at 4 h [5]: 0 ng/mL | concentration at 4 h [6]: 0 ng/mL | concentration at 6 h [5]: 0 ng/mL | concentration at 6 h [6]: 0 ng/mL | concentration at 8 h [5]: 0 ng/mL | concentration at 8 h [6]: 0 ng/mL | concentration at 0.5 h [7]: 0 ng/mL | concentration at 0.5 h [8]: 0 ng/mL | concentration at 1 h [7]: 0 ng/mL | concentration at 1 h [8]: 0 ng/mL | concentration at 2 h [7]: 0 ng/mL | concentration at 2 h [8]: 0 ng/mL | concentration at 4 h [7]: 0 ng/mL | concentration at 4 h [8]: 0 ng/mL | concentration at 6 h [7]: 0 ng/mL | concentration at 6 h [8]: 0 ng/mL | concentration at 8 h [7]: 0 ng/mL | concentration at 8 h [8]: 0 ng/mL | concentration at 0.5 h [9]: 0 ng/mL | concentration at 0.5 h [10]: 0 ng/mL | concentration at 1 h [9]: 0 ng/mL | concentration at 1 h [10]: 0 ng/mL | concentration at 2 h [9]: 0 ng/mL | concentration at 2 h [10]: 0 ng/mL | concentration at 4 h [9]: 0 ng/mL | concentration at 4 h [10]: 0 ng/mL | concentration at 6 h [9]: 0 ng/mL | concentration at 6 h [10]: 0 ng/mL | concentration at 8 h [9]: 0 ng/mL | concentration at 8 h [10]: 0 ng/mL | concentration at 0.5 h [11]: 0 ng/mL | concentration at 0.5 h [12]: 0 ng/mL | concentration at 1 h [11]: 0 ng/mL | concentration at 1 h [12]: 0 ng/mL | concentration at 2 h [11]: 0 ng/mL | concentration at 2 h [12]: 0 ng/mL | concentration at 4 h [11]: 0.4 ng/mL | concentration at 4 h [12]: 0 ng/mL | concentration at 6 h [11]: 0.6 ng/mL | concentration at 6 h [12]: 0 ng/mL | concentration at 8 h [11]: 0.1 ng/mL | concentration at 8 h [12]: 0 ng/mL | concentration at 0.5 h [13]: 0 ng/mL | concentration at 0.5 h [14]: 0 ng/mL | concentration at 1 h [13]: 0 ng/mL | concentration at 1 h [14]: 0 ng/mL | concentration at 2 h [13]: 0.4 ng/mL | concentration at 2 h [14]: 0 ng/mL | concentration at 4 h [13]: 1.3 ng/mL | concentration at 4 h [14]: 1.7 ng/mL | concentration at 6 h [13]: 1.8 ng/mL | concentration at 6 h [14]: 2 ng/mL | concentration at 8 h [13]: 1.6 ng/mL | concentration at 8 h [14]: 1.6 ng/mL | AUC(0-t) [15]: 2.4 ng·h/mL | Cmax [15]: 1.4 ng/mL | AUC(0-t) [16]: 1.6 ng·h/mL | Cmax [16]: 1.4 ng/mL | MRT [15]: 5.2 h | Tmax [15]: 5 h | MRT [16]: 5.3 h | Tmax [16]: 5 h | AUC(0-t) [17]: 8.1 ng·h/mL | Cmax [17]: 2.4 ng/mL | AUC(0-t) [18]: 9.6 ng·h/mL | Cmax [18]: 2.5 ng/mL | MRT [17]: 5.7 h | Tmax [17]: 6.1 h | MRT [18]: 5.8 h | Tmax [18]: 6 h | number of positive plasma samples (of 504 plasma samples from 15 participants after oral Δ8-THCV): 49 | concentration in representative plasma sample (one subject after oral Δ8-THCV in MCT oil, Figure A1): 1.4 ng/mL
